Results published in PubChem BioAssay AID248 (DTP/NCI, 2004).
Where “and” joins values, the source holds several entries; their conditions need not be identical. Equal entries are not always repeated. Inconclusive results and toxic doses are left out. Rule as the data show it: active = T/C of 150% or more; inactive = T/C below 125%.

Test system: L1210 leukemia ip in BDF1 mice, survival T/C
Assay: NCI In Vivo Anticancer Drug Screen. Data for tumor model L1210 Leukemia (intraperitoneal) in B6D2F1 (BDF1) mice
Settings: endpoint: mean survival time, higher = longer survival
In short: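 Tumor cells were implanted, animals were treated, and survival was followed. The result divides the treated measurement by the vehicle-control measurement.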

[1] = dose: 100.0 mg/kg/injection, schedule: Q01DX001 (ip), vehicle: carboxymethylcellulose (CMC)
[2] = dose: 200.0 mg/kg/injection, schedule: Q01DX001 (ip), vehicle: carboxymethylcellulose (CMC)
[3] = dose: 200.0 mg/kg/injection, schedule: Q01DX Z (ip), vehicle: saline
[4] = dose: 400.0 mg/kg/injection, schedule: Q01DX001 (ip), vehicle: carboxymethylcellulose (CMC)
[5] = dose: 100.0 mg/kg/injection, schedule: Q01DX001 (ip), vehicle: Klucel (hydroxypropylcellulose) (HPC)
[6] = dose: 200.0 mg/kg/injection, schedule: Q01DX001 (ip), vehicle: Klucel (hydroxypropylcellulose) (HPC)
[7] = dose: 400.0 mg/kg/injection, schedule: Q01DX001 (ip), vehicle: Klucel (hydroxypropylcellulose) (HPC)
[8] = dose: 100.0 mg/kg/injection, schedule: Q04DX003 (ip), vehicle: Klucel (hydroxypropylcellulose) (HPC)
[9] = dose: 200.0 mg/kg/injection, schedule: Q04DX003 (ip), vehicle: Klucel (hydroxypropylcellulose) (HPC)
[10] = dose: 400.0 mg/kg/injection, schedule: Q04DX003 (ip), vehicle: Klucel (hydroxypropylcellulose) (HPC)
[11] = dose: 100.0 mg/kg/injection, schedule: Q04DX003 (ip), vehicle: saline
[12] = dose: 100.0 mg/kg/injection, schedule: Q01DX009 (ip), vehicle: saline
[13] = dose: 200.0 mg/kg/injection, schedule: Q01DX009 (ip), vehicle: saline
[14] = dose: 200.0 mg/kg/injection, schedule: Q04DX003 (ip), vehicle: saline
[15] = dose: 400.0 mg/kg/injection, schedule: Q01DX009 (ip), vehicle: saline
[16] = dose: 400.0 mg/kg/injection, schedule: Q04DX003 (ip), vehicle: saline
[17] = dose: 100.0 mg/kg/injection, schedule: Q04DX002 (ip), vehicle: saline with Tween-80
[18] = dose: 100.0 mg/kg/injection, schedule: Q01DX009 (ip), vehicle: saline with Tween-80
[19] = dose: 100.0 mg/kg/injection, schedule: Q04DX003 (ip), vehicle: saline with Tween-80
[20] = dose: 200.0 mg/kg/injection, schedule: Q01DX009 (ip), vehicle: saline with Tween-80
[21] = dose: 200.0 mg/kg/injection, schedule: Q04DX003 (ip), vehicle: saline with Tween-80
[22] = dose: 400.0 mg/kg/injection, schedule: Q01DX009 (ip), vehicle: saline with Tween-80
[23] = dose: 400.0 mg/kg/injection, schedule: Q04DX003 (ip), vehicle: saline with Tween-80
[24] = dose: 100.0 mg/kg/injection, schedule: Q01DX009 (ip), vehicle: Klucel (hydroxypropylcellulose) (HPC)

Measured: T/C

NC(=O)/C=C/NC(=O)/C=N\O
inactive: dose: 12.5 mg/kg/injection, schedule: Q01DX Z (ip), vehicle: saline 97 % of control and 89 % of control | dose: 25.0 mg/kg/injection, schedule: Q01DX Z (ip), vehicle: saline 92 % of control and 93 % of control | dose: 50.0 mg/kg/injection, schedule: Q01DX Z (ip), vehicle: saline 96 % of control and 97 % of control | [1] 102 % of control | dose: 100.0 mg/kg/injection, schedule: Q01DX Z (ip), vehicle: saline 96 % of control and 100 % of control | [2] 96 % of control | [3] 97 % of control and 89 % of control | [4] 91 % of control

CC(CCl)=C(B1OC(C)(C)C(C)(C)O1)B1OC(C)(C)C(C)(C)O1
inactive: [5] 110 % of control | [6] 94 % of control | [7] 92 % of control

O=C(OCCCCCOC(=O)c1ccccc1O)c1ccccc1O
inactive: dose: 100.0 mg/kg/injection, schedule: Q01DX001 (ip), vehicle: other 91 % of control | [8] 92 % of control | dose: 200.0 mg/kg/injection, schedule: Q01DX001 (ip), vehicle: other 88 % of control | [9] 91 % of control | [10] 89 % of control

CC(C)(C)C1COP(=S)(C(C)(C)C)OC1 (centres undefined)
inactive: [8] 102 % of control | [9] 93 % of control

O=C(CCl)OCC1CC2C=CC1C2 (centres undefined)
inactive: dose: 222.0 mg/kg/injection, schedule: Q01DX Z (ip), vehicle: saline 98 % of control | dose: 333.0 mg/kg/injection, schedule: Q01DX Z (ip), vehicle: saline 100 % of control | dose: 500.0 mg/kg/injection, schedule: Q01DX Z (ip), vehicle: saline 96 % of control

CC(=O)N(C)NC(=O)c1ccccn1
inactive: dose: 12.5 mg/kg/injection, schedule: Q01DX009 (ip), vehicle: water 103 % of control | dose: 25.0 mg/kg/injection, schedule: Q01DX009 (ip), vehicle: water 103 % of control | dose: 50.0 mg/kg/injection, schedule: Q01DX009 (ip), vehicle: water 105 % of control

CN(Cc1ccccc1)C(Cc1c[nH]c2ccccc12)C(=O)O (centres undefined)
inactive: dose: 25.0 mg/kg/injection, schedule: Q04DX003 (ip), vehicle: saline 111 % of control | dose: 50.0 mg/kg/injection, schedule: Q04DX003 (ip), vehicle: saline 108 % of control | dose: 100.0 mg/kg/injection, schedule: Q01DX001 (ip), vehicle: saline 100 % of control | [11] 94 % of control | dose: 150.0 mg/kg/injection, schedule: Q04DX003 (ip), vehicle: acetone 91 % of control | dose: 225.0 mg/kg/injection, schedule: Q04DX003 (ip), vehicle: acetone 109 % of control | dose: 335.0 mg/kg/injection, schedule: Q04DX003 (ip), vehicle: acetone 100 % of control

Nc1cc(=O)[nH][nH]1
inactive: [12] 98 % of control | [11] 102 % of control | [13] 106 % of control | dose: 200.0 mg/kg/injection, schedule: Q01DX Z (ip), vehicle: carboxymethylcellulose (CMC) 115 % of control | [3] 115 % of control | [14] 107 % of control | dose: 300.0 mg/kg/injection, schedule: Q01DX Z (ip), vehicle: carboxymethylcellulose (CMC) 115 % of control | dose: 300.0 mg/kg/injection, schedule: Q01DX Z (ip), vehicle: saline 123 % of control | [15] 120 % of control | [16] 105 % of control | dose: 450.0 mg/kg/injection, schedule: Q01DX Z (ip), vehicle: carboxymethylcellulose (CMC) 121 % of control | dose: 675.0 mg/kg/injection, schedule: Q01DX Z (ip), vehicle: saline 112 % of control

CS(=O)(=O)O
inactive: [12] 102 % of control | [11] 108 % of control | [13] 93 % of control | [14] 98 % of control | [15] 100 % of control | [16] 109 % of control

Cc1[nH]c2ccccc2c(=O)c1CCC(=O)O
inactive: [17] 88 % of control | dose: 200.0 mg/kg/injection, schedule: Q04DX002 (ip), vehicle: saline with Tween-80 91 % of control | dose: 400.0 mg/kg/injection, schedule: Q04DX002 (ip), vehicle: saline with Tween-80 91 % of control

Nc1nc2ncc(CNc3ccc(CCC(=O)NC(CCC(=O)O)C(=O)O)cc3)nc2c(=O)[nH]1 (centres undefined)
inactive: dose: 50.0 mg/kg/injection, schedule: Q01DX001 (ip), vehicle: saline with Tween-80 108 % of control | dose: 100.0 mg/kg/injection, schedule: Q01DX001 (ip), vehicle: saline with Tween-80 100 % of control | dose: 200.0 mg/kg/injection, schedule: Q01DX001 (ip), vehicle: saline with Tween-80 101 % of control

S=C=NCCCCCCCCCCCCN=C=S
inactive: dose: 6.25 mg/kg/injection, schedule: Q01DX009 (ip), vehicle: saline with Tween-80 101 % of control | dose: 12.5 mg/kg/injection, schedule: Q01DX009 (ip), vehicle: saline with Tween-80 93 % of control | dose: 25.0 mg/kg/injection, schedule: Q04DX002 (ip), vehicle: saline with Tween-80 114 % of control | dose: 50.0 mg/kg/injection, schedule: Q04DX002 (ip), vehicle: saline with Tween-80 111 % of control | [17] 101 % of control

c1cc2cccc3c2c(c1)c1sc2c4cccc5cccc(c54)c2c31
inactive: [18] 100 % of control | [19] 101 % of control | [20] 92 % of control | [21] 90 % of control | [22] 89 % of control | [23] 94 % of control

NC(=O)CN1C(=O)c2ccccc2C1=O
inactive: [18] 97 % of control | [19] 97 % of control | [20] 89 % of control | [21] 97 % of control | [22] 91 % of control | [23] 97 % of control

O/N=C1\c2ccccc2-c2ccc(Cl)cc21
inactive: [1] 95 % of control | [2] 111 % of control | [4] 97 % of control

c1ccc(CC(Cc2ccccc2)CN2CCCC2)cc1
inactive: [12] 94 % of control | [11] 95 % of control | [13] 102 % of control | [14] 94 % of control | [15] 103 % of control | [16] 89 % of control

O=C(OCC(OC(=O)c1ccccc1)C1OCOC2COCOC21)c1ccccc1 (centres undefined)
inactive: [5] 101 % of control | [6] 101 % of control | [7] 97 % of control

O=c1cc(-c2ccc(S(=O)(=O)F)cc2)[nH]c2ccc([N+](=O)[O-])cc12
inactive: [12] 101 % of control | [13] 101 % of control | [15] 100 % of control

CCCC/C=C(/C)C1(CC)C(=O)NC(=O)NC1=O
inactive: dose: 75.0 mg/kg/injection, schedule: Q01DX001 (ip), vehicle: saline 100 % of control and 98 % of control | dose: 150.0 mg/kg/injection, schedule: Q01DX001 (ip), vehicle: saline 93 % of control and 102 % of control

CCOC(=O)C(C)C(OCC)OCC (centres undefined)
inactive: [24] 96 % of control | [8] 90 % of control | dose: 200.0 mg/kg/injection, schedule: Q01DX009 (ip), vehicle: Klucel (hydroxypropylcellulose) (HPC) 104 % of control | [9] 103 % of control | dose: 400.0 mg/kg/injection, schedule: Q01DX009 (ip), vehicle: Klucel (hydroxypropylcellulose) (HPC) 89 % of control | [10] 107 % of control

C=CCc1cnc(SC)[nH]c1=O
inactive: [8] 102 % of control | [9] 97 % of control | [10] 93 % of control

Cc1cccc(CCc2ccc(Br)c(C)c2C)c1C
inactive: [1] 100 % of control | [2] 103 % of control | [4] 94 % of control

O=C1c2cccc(NCCO)c2C(=O)c2c(NCCO)cccc21
inactive: [8] 94 % of control | [9] 102 % of control | [10] 94 % of control

C=CCSCCC=O
inactive: dose: 25.0 mg/kg/injection, schedule: Q01DX001 (ip), vehicle: Klucel (hydroxypropylcellulose) (HPC) 100 % of control | dose: 50.0 mg/kg/injection, schedule: Q01DX001 (ip), vehicle: Klucel (hydroxypropylcellulose) (HPC) 102 % of control | [5] 102 % of control

C/C=C/c1ccc2ccccc2c1
inactive: [1] 104 % of control | [2] 96 % of control | [4] 104 % of control

CC(=O)Nc1cc(Cl)cc2c1-c1c(Cl)cc(Cl)cc1C2
inactive: [24] 92 % of control | [8] 92 % of control | [9] 105 % of control | [10] 105 % of control
